A value given as a limit tells only on which side of the number the result lay.

The values that follow come from patent US20250313555A1, “2-SUBSTITUTED THIAZOLE AND BENZOTHIAZOLE COMPOSITIONS AND METHODS AS DUX4 INHIBITORS” (ALTAY THERAPEUTICS, INC., priority 2022, published 2025).

What all share (type): cell-based
For one data set, the target named is T1, DUX4 (Homo sapiens, UniProt Q9UBX2).
T1 construct: expressed in transfected cells; host or cells: HEK293
The data set is described as follows: DUX4 EC50 luciferase reporter protocol in transfected HEK293 cells. The following applies: 6 hr. The text has this: EC50 Protocol This example provides a representative protocol for a single well of a 96-well plate. It can be scaled up as necessary for treatment of multiple wells. For negative controls, a well containing reporter DNA, Renilla DNA, and turbofect (without expression vector) were used. For positive controls, wells containing cells that were not treated with any inhibitor were used. They were transfected with the complete DNA lipid complex as set forth below. The DNA-lipid complex for one well of the 96-well plate is prepared by adding to a tube 100 ng of the transfection factor (TF) expression vector, 100 ng of TF reporter DNA, 10 ng of Renilla reporter DNA, […] Turbofect transfection reagent, and […] of the medium without any serum or penicillin/streptomycin. The combination was mixed by gentle flicking of the tube, and the mixture was pipetted into a well of a 96-well plate. The plate was then gently tapped to spread the combination evenly on the bottom of the well. The well was incubated for 30 min. HEK293 cells were grown until 80% confluent in DMEM supplemented with 10% fetal bovine serum, 1% penicillin streptomycin, and 1% amphotericin B. The adherent cells growing on a 10 cm plate were trypsinized with 1 mL of prewarmed trypsin. Once the cells detached from the plate, 10 mL of medium was added, and the cells were strained through a […] cell strainer. The cells were counted using a mixture of 10 mL cell suspension with 10 mL of trypan blue. Once the total number of cells are counted, a dilution of 150 k/mL was prepared. After incubation of the transfection complex was complete, […] of HEK293s (23.25 k total cells) were gently dispensed on top of the wells containing the 25 mL transfection complex, producing a total volume of about 180 mL. The mixture was then incubated for 24 h. To treat cells with each inhibitor, the inhibitors were prepared in the same growth medium. In a deep well block, the regular medium with serum was added to well 1 (135 mL) and to wells 2 through 10 (100 mL). To the first well was added 15 mL of 10 nM inhibitor. The final concentration of the drug in well 1 was 1 nM. The wells were pipeted up and down, and 50 mL was transferred from well 1 to well 2 (1/3 dilution). The well was mixed, and the seriation dilution was repeated with the remaining wells. Once the serial dilution was complete, using a multichannel pipet, 20 mL of each inhibitor were transferred to designated wells in a 96-well plate. […] Before the assay, a sufficient amount of 1× passive lysis buffer was prepared. The luciferase substrate buffer (Promega) was thawed completely and then mixed with the lyophilized luciferase substrate. The stop buffer (Promega) was also completely thawed. (1) Cell lysis: After treatment of the cells was complete, all the cell media is removed by flipping the 96-well plate over and tapping it dry on a dry paper towel. Immediately afterwards, the 1× passive lysis buffer (25 μL) was added. The plates were then placed on a rocker for 15 minutes at medium speed. (2)Measuring luciferase signal: The luciferase substrate solution for all wells was placed in a solution basin. The luciferase substrate solution was then added to every well (100 μL/well) using a multichannel pipette. The total luminescence was then read immediately using a plate reader. (3)Measuring Renilla signal: The “complete stop solution” was prepared in a solution basin by mixing the buffer with the 50× stop solution substrate (Promega) to make the final 1× solution. The complete stop solution was added to each well (50 μL/well) using a multichannel pipette. The total luminescence was then read immediately using a plate reader. Using a spreadsheet (e.g., Excel), the luciferase signal was divided by the renilla signal to get a relative luciferase unit.

Data set [1] can be described thus: Cell cytotoxicity 50 assay (CC50), MB200 cells, cell titer glo. The note with it: human. In outline:
(§1)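 MB200 cells were seeded at 10 k/well in F10 medium with bFGF, 15% FBS and dexamethasone. Cells were exposed to serially diluted compound (from 10 mM stock) in triplicate for 72 h at 37 °C. Viability was read by CellTiter-Glo luminescence and CC50 was fitted.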
A general note: Cellular ATP, detected with luciferase, serves as a proxy for viable cell number.

Data set [2] can be described thus: Cell cytotoxicity 50 assay (CC50), HEK cells. The note with it: human. The method, boiled down: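 Starting from a 10 mM drug solution, serial dilutions were made in medium and added onto HEK cells, which were then incubated 72 h at 37 °C. Viability was read as CellTiter-Glo luminescence after 5 min, and CC50 was obtained by curve fitting.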
In the next data set the test system is MB200 cells. The data set is described as follows: Cell cytotoxicity 50 assay (CC50), MB200 cells, cell titer glo. The following applies: 72 h. In outline: as §1

T1 sequence (Q9UBX2 whole entry): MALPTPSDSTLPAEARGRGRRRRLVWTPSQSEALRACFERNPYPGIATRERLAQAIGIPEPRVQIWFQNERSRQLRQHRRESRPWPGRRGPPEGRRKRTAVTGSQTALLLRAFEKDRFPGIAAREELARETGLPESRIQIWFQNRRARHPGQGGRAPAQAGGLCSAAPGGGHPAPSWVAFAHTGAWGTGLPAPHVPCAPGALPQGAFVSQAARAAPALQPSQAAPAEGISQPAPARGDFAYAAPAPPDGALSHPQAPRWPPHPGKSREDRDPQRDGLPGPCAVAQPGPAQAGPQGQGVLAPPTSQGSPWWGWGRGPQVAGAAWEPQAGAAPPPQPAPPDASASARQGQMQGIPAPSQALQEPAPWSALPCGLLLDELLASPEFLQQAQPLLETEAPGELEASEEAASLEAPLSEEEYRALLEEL

For orientation: EC50 means the concentration at which the effect is half-maximal. Usually CC50 stands for the concentration at which the toxic effect on the cells reaches its halfway point. Read a low CC50 as harm at low concentration. As to `O=C(CCC(=O)c1cccs1)Nc1ccc(-c2nc3ccccc3s2)cc1` [Compound 25], the EC50 on DUX4 was over 10 µM. Besides, the CC50 at 72 h in data set [1] and in data set [2] was over 10 µM in each case.

For `O=C(CCN1C(=O)CCC1=O)Nc1ccc(-c2ccc3ncsc3c2)cc1` [Compound 43], the EC50 on DUX4 is over 10 µM. Also, the CC50 at 72 h in data set [1] and in data set [2] was over 10 µM in each case.

Consider `O=C(CCN1C(=O)CCC1=O)Nc1ccc(C(=O)c2nc3ccccc3s2)cc1` [Compound 69], for which the EC50 at DUX4 was over 10 µM. Further, the CC50 at 72 h is 1 to 10 µM in data set [1] and over 10 µM in data set [2].

For the compound `CC(=O)NCCCC(=O)Nc1coc(-c2nccs2)c1` [Compound 79], the EC50 at DUX4 is over 10 µM. The CC50 at 72 h in data set [1] and in data set [2] was over 10 µM in each case.

As to `CC(=O)NCCCC(=O)Nc1ccc(Cc2nc3ccccc3s2)cc1` [Compound 80], the EC50 at DUX4 is over 10 µM. For the same compound, the CC50 at 72 h in data set [1] and in data set [2] was over 10 µM throughout.

For `O=C1CCC(=O)N1[C@H]1C[C@@H](C(=O)Nc2ccc(-c3nc4ccccc4s3)cc2)C1` [Compound 95], the EC50 at DUX4 was over 10 µM. Further, the CC50 at 72 h in data set [1] and in data set [2] was over 10 µM each time.

For `O=C(CCCN1C(=O)CCC1=O)N[C@H]1C[C@H](c2nc3ccccc3s2)C1` [Compound 98], the EC50 at DUX4 is over 10 µM. The CC50 at 72 h in data set [1] and in data set [2] was over 10 µM each time.

With `CC(=O)NCCCC(=O)Nc1ncc(-c2nc3ccccc3s2)o1` [Compound 121], the EC50 on DUX4 is over 10 µM. Moreover, the CC50 at 72 h in data set [1] and in data set [2] was over 10 µM each time.

For the compound `O=C(CCCN1CCCC1=O)NC1COCC1c1nc2ccccc2s1` (stereo not shown) [Compound 122], the EC50 on DUX4 is over 10 µM. Also, the CC50 at 72 h in data set [1] and in data set [2] was over 10 µM each time.

For `O=C(CCCN1CCCC1=O)NC1CCCCC1c1nc2ccccc2s1` (stereo not shown) [Compound 123], the half-maximal effective concentration (EC50) on DUX4 is over 10 µM. Moreover, the CC50 at 72 h in data set [1] and in data set [2] was over 10 µM each time.

For `O=C(CCCN1C(=O)CCC1=O)N[C@@H]1CC[C@H](c2nc3ccccc3s2)C1` [Compound 127], the EC50 on DUX4 was over 10 µM. Moreover, the CC50 at 72 h in data set [1] and in data set [2] was over 10 µM in each case.

For the compound `O=C(CCCN1C(=O)CCC1=O)N[C@H]1CC[C@H](c2nc3ccccc3s2)C1` [Compound 128], the EC50 on DUX4 was over 10 µM. In addition, the CC50 at 72 h in data set [1] and in data set [2] was over 10 µM each time.

For the compound `CC(=O)NC1CCC(C(=O)N[C@H]2CC[C@@H](c3nc4ccccc4s3)CC2)C1` (stereo partly shown) [Compound 133], the EC50 at DUX4 was over 10 µM. The CC50 at 72 h in data set [1] and in data set [2] was over 10 µM each time.

In the case of `CC(=O)NC1CCC(C(=O)NC2CCC(c3nc4ccccc4s3)C2)C1` (stereo not shown) [Compound 135], on DUX4, the EC50 is over 10 µM. Besides, the CC50 at 72 h in data set [1] and in data set [2] was over 10 µM throughout.

With `CC(=O)NCCCC(=O)N[C@H]1CCC[C@H]1c1nc2ccccc2s1` [Compound 136], the EC50 on DUX4 is over 10 µM. The CC50 at 72 h in data set [1] and in data set [2] was over 10 µM throughout.

Consider `CC(=O)NCCCC(=O)N[C@@H]1CCC[C@H]1c1nc2ccccc2s1` [Compound 137], for which the EC50 at DUX4 was over 10 µM. In addition, the CC50 at 72 h in data set [1] and in data set [2] was over 10 µM in each case.

Consider `CC(=O)NCCCCC(=O)NC1CCC(c2nc3ccccc3s2)CC1` (stereo not shown) [Compound 139], for which the EC50 on DUX4 is over 10 µM. In addition, the CC50 at 72 h in data set [1] and in data set [2] was over 10 µM throughout.

`O=C(CCCCN1C(=O)CCC1=O)NC1CCC(c2nc3ccccc3s2)CC1` (stereo not shown) [Compound 143]: at DUX4, the EC50 was over 10 µM. In addition, the CC50 at 72 h in data set [1] and in data set [2] was over 10 µM each time.

Take `CC(=O)NCCCC(=O)N(C)C1CCC(c2nc3ccccc3s2)C1` (stereo not shown) [Compound 146]: the EC50 at DUX4 is over 10 µM. Besides, the CC50 at 72 h in data set [1] and in data set [2] was over 10 µM throughout.

`CN(C(=O)CCCN1C(=O)CCC1=O)C1CCC(c2nc3ccccc3s2)C1` (stereo not shown) [Compound 147]: the EC50 on DUX4 is over 10 µM. Moreover, the CC50 at 72 h in data set [1] and in data set [2] was over 10 µM in each case.

Consider `O=C(CCCN1C(=O)CCC1=O)Nc1ccc(Cc2nc3ccccc3s2)cc1` [Compound 148], for which the EC50 at DUX4 was over 10 µM. The CC50 at 72 h in data set [1] and in data set [2] was over 10 µM throughout.

`O=C(NCCCN1C(=O)CCC1=O)c1ccc(Cc2nc3ccccc3s2)cc1` [Compound 150]: at DUX4, the EC50 was over 10 µM. Moreover, the CC50 at 72 h in data set [1] and in data set [2] was over 10 µM throughout.

`O=C(CCCCN1C(=O)CCC1=O)N[C@H]1CC[C@H](c2nc3ccccc3s2)CC1` [Compound 152]: the EC50 on DUX4 was over 10 µM. Besides, the cytotoxic concentration (CC50) at 72 h in data set [1] and in data set [2] was over 10 µM each time.

As for `CC(=O)NCCCN(C)C(=O)[C@@H]1CC[C@H](c2nc3ccccc3s2)C1` [Compound 153], at DUX4, the EC50 is over 10 µM. For the same compound, the CC50 at 72 h in data set [1] and in data set [2] was over 10 µM each time.

As for `CC(=O)NCCCN(C)C(=O)[C@H]1CC[C@H](c2nc3ccccc3s2)C1` [Compound 154], the EC50 on DUX4 is over 10 µM. The CC50 at 72 h in data set [1] and in data set [2] was over 10 µM each time.

Compound `O=C(CCCN1C(=O)CCC1=O)N[C@@H]1CC[C@H](c2nc3ccccc3s2)C1` [Compound 159] came in with a CC50 in the data set with MB200 cells of over 10 µM.

Turning to `O=C(CCCN1C(=O)CCC1=O)N[C@H]1CC[C@@H](c2nc3ccccc3s2)C1` [Compound 160], the EC50 on DUX4 is over 10 µM. Besides, the CC50 at 72 h in data set [1] and in data set [2] was over 10 µM in each case.

Take `CC(=O)NCCCNC(=O)[C@@H]1CC[C@H](c2nc3ccccc3s2)C1` [Compound 165]: at DUX4, the EC50 was over 10 µM. Moreover, the CC50 at 72 h in data set [1] and in data set [2] was over 10 µM each time.

Turning to `CC(=O)NCCCNC(=O)[C@H]1CC[C@H](c2nc3ccccc3s2)C1` [Compound 166], the EC50 on DUX4 is over 10 µM. The CC50 at 72 h in data set [1] and in data set [2] was over 10 µM in each case.

Consider `CC(=O)NCCCNC(=O)c1cc(F)cc(-c2nc3cc(F)ccc3s2)c1` [Compound 180], for which the EC50 at DUX4 was over 10 µM. In addition, the CC50 at 72 h in data set [1] and in data set [2] was over 10 µM each time.

Regarding `CC(=O)NCCCC(=O)Nc1cc(F)cc(-c2nc3cc(F)ccc3s2)c1` [Compound 181], the EC50 at DUX4 is over 10 µM. For the same compound, the CC50 at 72 h in data set [1] and in data set [2] was over 10 µM in each case.

Consider `O=C1CCC(CCC(=O)N[C@H]2CC[C@@H](c3nc4ccccc4s3)CC2)N1` (stereo partly shown) [Compound 186], for which, on DUX4, the EC50 is over 10 µM. Besides, the CC50 at 72 h in data set [1] and in data set [2] was over 10 µM throughout.

With `O=C1CCC(CCC(=O)N[C@H]2CC[C@H](c3nc4ccccc4s3)CC2)N1` (stereo partly shown) [Compound 187], the EC50 on DUX4 was over 10 µM. Also, the CC50 at 72 h in data set [1] and in data set [2] was over 10 µM each time.
